As usually defined, the inhibition is the percentage by which the read-out fell short of the control.

The target in assay [1] is Serine/threonine-protein kinase BRSK1 (Homo sapiens) (UniProt Q8TDC3). The assay can be described thus: Inhibition of wild-type human partial length BRSK1 (M1 to E754 residues) expressed in bacterial expression system at 10 uM by Kinomescan method relative to control.
The target in assay [2] is Serine/threonine-protein kinase Sgk1 (Homo sapiens) (UniProt O00141). The assay can be described thus: Inhibition of wild-type human partial length SGK (I60 to L431 residues) expressed in mammalian expression system at 10 uM by Kinomescan method relative to control.
Assay [3] has as its target Serine/threonine-protein kinase Nek2 (Homo sapiens) (UniProt P51955). The assay can be described thus: Inhibition of wild-type human partial length NEK2 (M1 to K309 residues) expressed in bacterial expression system at 10 uM by Kinomescan method relative to control.
The target in assay [4] is Serine/threonine-protein kinase ULK2 (Homo sapiens) (UniProt Q8IYT8). In words: Inhibition of wild-type human partial length ULK2 (M1 to S301 residues) expressed in mammalian expression system at 10 uM by Kinomescan method relative to control.
Assay [5] concerns the target Eukaryotic translation initiation factor 2-alpha kinase 1 (Homo sapiens) (UniProt Q9BQI3). In words: Inhibition of wild-type human partial length EIF2AK1 (Q147 to E603 residues) expressed in mammalian expression system at 10 uM by Kinomescan method relative to control.
Assay [6] concerns the target Transient receptor potential cation channel subfamily M member 6 (Homo sapiens) (UniProt Q9BX84). The assay can be described thus: Inhibition of wild-type human partial length TRPM6 (Q1723 to I1998 residues) expressed in mammalian expression system at 10 uM by Kinomescan method relative to control.
Assay [7] concerns Proto-oncogene tyrosine-protein kinase receptor Ret (Homo sapiens), P07949 [M918T]. The assay can be described thus: Inhibition of human partial length RET M918T mutant (E713 to D1014 residues) expressed in bacterial expression system at 10 uM by Kinomescan method relative to control.
Assay [8] deals with Dual specificity mitogen-activated protein kinase kinase 4 (Homo sapiens) (UniProt P45985). In words: Inhibition of wild-type human partial length MEK4 (S84 to D399 residues) expressed in mammalian expression system at 10 uM by Kinomescan method relative to control.
Assay [9] deals with Calcium/calmodulin-dependent protein kinase type 1D (Homo sapiens) (UniProt Q8IU85). In words: Inhibition of wild-type human partial length CAMK1D (M1 to K299 residues) expressed in bacterial expression system at 10 uM by Kinomescan method relative to control.
Assay [10] addresses Serine/threonine-protein kinase PAK 2 (Homo sapiens) (UniProt Q13177). In words: Inhibition of wild-type human partial length PAK2 (P151 to R525 residues) expressed in bacterial expression system at 10 uM by Kinomescan method relative to control.
Assay [11] deals with Peripheral plasma membrane protein CASK (Homo sapiens) (UniProt O14936). In words: Inhibition of wild-type human partial length CASK (M1 to H315 residues) expressed in mammalian expression system at 10 uM by Kinomescan method relative to control.
Assay [12] deals with Serine/threonine-protein kinase RIO3 (Homo sapiens) (UniProt O14730). The assay can be described thus: Inhibition of wild-type human full length RIOK3 (M1 to E519 residues) expressed in bacterial expression system at 10 uM by Kinomescan method relative to control.
The target of assay [13] is Serine/threonine-protein kinase WNK1 (Homo sapiens) (UniProt Q9H4A3). In words: Inhibition of wild-type human partial length WNK1 (Q194 to A490 residues) expressed in mammalian expression system at 10 uM by Kinomescan method relative to control.
Assay [14] concerns the target Myosin-IIIb (Homo sapiens) (UniProt Q8WXR4). The assay can be described thus: Inhibition of wild-type human partial length MYO3B (M1 to D357 residues) expressed in bacterial expression system at 10 uM by Kinomescan method relative to control.
Assay [15] addresses Casein kinase I isoform epsilon (Homo sapiens) (UniProt P49674). In words: Inhibition of wild-type human full length CSNK1E (M1 to K416 residues) expressed in bacterial expression system at 10 uM by Kinomescan method relative to control.
In assay [16] the target is Ribosomal protein S6 kinase beta-1 (Homo sapiens) (UniProt P23443). The assay can be described thus: Inhibition of wild-type human partial length S6K1 (M1 to S421 residues) expressed in mammalian expression system at 10 uM by Kinomescan method relative to control.
Assay [17] deals with Cyclin-dependent kinase 3 (Homo sapiens) (UniProt Q00526). The assay can be described thus: Inhibition of wild-type human full length CDK3 (M1 to H305 residues) expressed in bacterial expression system at 1 uM by Kinomescan method relative to control.
In assay [18] the target is Hepatocyte growth factor receptor (Homo sapiens) (UniProt P08581). The assay can be described thus: Inhibition of wild-type human partial length MET (D1010 to S1367 residues) expressed in bacterial expression system at 1 uM by Kinomescan method relative to control.
The target in assay [19] is MAP kinase-interacting serine/threonine-protein kinase 2 (Homo sapiens) (UniProt Q9HBH9). In words: Inhibition of wild-type human partial length MKNK2 (G63 to S388 residues) expressed in mammalian expression system at 1 uM by Kinomescan method relative to control.
In assay [20] the target is RAC-alpha serine/threonine-protein kinase (Homo sapiens) (UniProt P31749). The assay can be described thus: Inhibition of wild-type human partial length AKT1 expressed in bacterial expression system at 1 uM by Kinomescan method relative to control.
Assay [21] addresses Serine/threonine-protein kinase TAO1 (Homo sapiens) (UniProt Q7L7X3). The assay can be described thus: Inhibition of wild-type human partial length TAOK1 (M1 to A320 residues) expressed in mammalian expression system at 1 uM by Kinomescan method relative to control.
Assay [22] deals with MAP kinase-activated protein kinase 2 (Homo sapiens) (UniProt P49137). In words: Inhibition of wild-type human partial length MAPKAPK2 (V48 to D345 residues) expressed in bacterial expression system at 1 uM by Kinomescan method relative to control.
The target of assay [23] is Serine/threonine-protein kinase 24 (Homo sapiens) (UniProt Q9Y6E0). In words: Inhibition of wild-type human partial length MST3 (A30 to S311 residues) expressed in bacterial expression system at 1 uM by Kinomescan method relative to control.
Assay [24] deals with Serine/threonine-protein kinase LATS2 (Homo sapiens) (UniProt Q9NRM7). In words: Inhibition of wild-type human partial length LATS2 (Q641 to V1088 residues) expressed in mammalian expression system at 1 uM by Kinomescan method relative to control.
For assay [25], the target named is Serine/threonine-protein kinase 36 (Homo sapiens) (UniProt Q9NRP7). In words: Inhibition of wild-type human partial length STK36 (M1 to T271 residues) expressed in bacterial expression system at 1 uM by Kinomescan method relative to control.
In assay [26] the target is Mitogen-activated protein kinase kinase kinase 14 (Homo sapiens) (UniProt Q99558). In words: Inhibition of wild-type human partial length NIK (L318 to P947 residues) expressed in mammalian expression system at 1 uM by Kinomescan method relative to control.
For assay [27], the target named is Serine/threonine-protein kinase ULK1 (Homo sapiens) (UniProt O75385). The assay can be described thus: Inhibition of wild-type human partial length ULK1 (M1 to T309 residues) expressed in mammalian expression system at 1 uM by Kinomescan method relative to control.

Chain of Hepatocyte growth factor receptor (Homo sapiens) (P08581 whole entry, the tested form may be a part): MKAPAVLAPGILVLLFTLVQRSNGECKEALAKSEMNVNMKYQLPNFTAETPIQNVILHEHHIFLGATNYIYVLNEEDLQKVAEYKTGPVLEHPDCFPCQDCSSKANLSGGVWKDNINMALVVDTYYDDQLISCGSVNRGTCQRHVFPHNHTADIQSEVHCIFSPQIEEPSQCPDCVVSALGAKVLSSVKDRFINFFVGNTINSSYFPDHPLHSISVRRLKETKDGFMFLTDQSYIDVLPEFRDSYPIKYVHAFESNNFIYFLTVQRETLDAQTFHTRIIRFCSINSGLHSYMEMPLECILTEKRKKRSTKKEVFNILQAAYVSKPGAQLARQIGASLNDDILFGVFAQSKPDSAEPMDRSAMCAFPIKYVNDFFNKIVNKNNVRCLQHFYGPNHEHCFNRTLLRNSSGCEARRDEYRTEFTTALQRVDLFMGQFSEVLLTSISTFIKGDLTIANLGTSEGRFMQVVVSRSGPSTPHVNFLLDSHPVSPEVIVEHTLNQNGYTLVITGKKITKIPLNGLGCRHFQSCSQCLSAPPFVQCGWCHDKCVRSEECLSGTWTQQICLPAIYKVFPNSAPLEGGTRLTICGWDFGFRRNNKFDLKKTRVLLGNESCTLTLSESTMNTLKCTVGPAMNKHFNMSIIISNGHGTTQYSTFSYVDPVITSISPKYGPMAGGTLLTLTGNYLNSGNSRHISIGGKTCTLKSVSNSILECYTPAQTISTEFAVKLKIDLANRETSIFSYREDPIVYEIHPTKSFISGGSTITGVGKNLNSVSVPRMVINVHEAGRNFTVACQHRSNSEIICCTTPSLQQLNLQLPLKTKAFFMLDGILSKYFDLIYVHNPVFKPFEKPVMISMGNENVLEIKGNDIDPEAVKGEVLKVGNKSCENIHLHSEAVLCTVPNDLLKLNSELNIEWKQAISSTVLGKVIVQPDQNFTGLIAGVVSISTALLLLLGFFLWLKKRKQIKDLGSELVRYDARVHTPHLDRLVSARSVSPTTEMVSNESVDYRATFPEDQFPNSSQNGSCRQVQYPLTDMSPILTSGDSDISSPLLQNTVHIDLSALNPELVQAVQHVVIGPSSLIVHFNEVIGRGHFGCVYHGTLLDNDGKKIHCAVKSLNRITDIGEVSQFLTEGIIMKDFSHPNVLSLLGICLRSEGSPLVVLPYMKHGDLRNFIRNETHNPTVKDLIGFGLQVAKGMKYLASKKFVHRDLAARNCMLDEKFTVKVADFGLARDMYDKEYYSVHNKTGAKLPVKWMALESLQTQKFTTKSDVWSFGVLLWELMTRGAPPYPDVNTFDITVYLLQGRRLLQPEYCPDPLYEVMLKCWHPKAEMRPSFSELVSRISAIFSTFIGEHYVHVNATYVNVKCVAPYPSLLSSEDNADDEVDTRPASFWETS
Chain of Serine/threonine-protein kinase LATS2 (Homo sapiens) (Q9NRM7 whole entry, the tested form may be a part): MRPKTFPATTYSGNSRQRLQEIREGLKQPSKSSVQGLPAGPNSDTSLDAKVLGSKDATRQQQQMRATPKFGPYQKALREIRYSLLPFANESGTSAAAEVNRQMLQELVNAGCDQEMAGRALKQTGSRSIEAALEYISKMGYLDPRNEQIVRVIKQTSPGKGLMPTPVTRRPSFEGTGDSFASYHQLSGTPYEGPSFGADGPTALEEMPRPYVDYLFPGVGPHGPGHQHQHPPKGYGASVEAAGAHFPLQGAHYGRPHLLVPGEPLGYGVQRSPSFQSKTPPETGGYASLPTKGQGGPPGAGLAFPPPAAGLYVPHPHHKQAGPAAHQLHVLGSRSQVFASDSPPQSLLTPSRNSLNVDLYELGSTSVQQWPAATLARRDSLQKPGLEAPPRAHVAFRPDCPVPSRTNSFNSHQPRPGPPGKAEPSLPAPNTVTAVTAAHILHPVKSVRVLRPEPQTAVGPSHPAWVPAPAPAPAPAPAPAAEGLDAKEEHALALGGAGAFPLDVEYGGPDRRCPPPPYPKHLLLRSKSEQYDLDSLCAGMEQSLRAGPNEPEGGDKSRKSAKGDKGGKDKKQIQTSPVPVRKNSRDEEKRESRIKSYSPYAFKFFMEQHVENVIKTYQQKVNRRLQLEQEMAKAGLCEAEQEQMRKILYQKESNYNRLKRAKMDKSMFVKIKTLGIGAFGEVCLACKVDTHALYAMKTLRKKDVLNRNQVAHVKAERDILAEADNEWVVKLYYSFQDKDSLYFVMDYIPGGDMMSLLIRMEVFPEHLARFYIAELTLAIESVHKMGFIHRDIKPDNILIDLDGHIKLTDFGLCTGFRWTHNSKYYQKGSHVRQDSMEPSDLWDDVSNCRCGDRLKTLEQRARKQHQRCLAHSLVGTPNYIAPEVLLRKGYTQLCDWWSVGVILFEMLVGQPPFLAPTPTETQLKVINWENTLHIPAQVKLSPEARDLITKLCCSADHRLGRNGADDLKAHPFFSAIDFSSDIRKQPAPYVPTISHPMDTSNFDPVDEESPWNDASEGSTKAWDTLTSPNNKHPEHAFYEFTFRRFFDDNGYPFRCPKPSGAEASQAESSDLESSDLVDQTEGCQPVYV
Chain of Serine/threonine-protein kinase Nek2 (Homo sapiens) (P51955 whole entry, the tested form may be a part): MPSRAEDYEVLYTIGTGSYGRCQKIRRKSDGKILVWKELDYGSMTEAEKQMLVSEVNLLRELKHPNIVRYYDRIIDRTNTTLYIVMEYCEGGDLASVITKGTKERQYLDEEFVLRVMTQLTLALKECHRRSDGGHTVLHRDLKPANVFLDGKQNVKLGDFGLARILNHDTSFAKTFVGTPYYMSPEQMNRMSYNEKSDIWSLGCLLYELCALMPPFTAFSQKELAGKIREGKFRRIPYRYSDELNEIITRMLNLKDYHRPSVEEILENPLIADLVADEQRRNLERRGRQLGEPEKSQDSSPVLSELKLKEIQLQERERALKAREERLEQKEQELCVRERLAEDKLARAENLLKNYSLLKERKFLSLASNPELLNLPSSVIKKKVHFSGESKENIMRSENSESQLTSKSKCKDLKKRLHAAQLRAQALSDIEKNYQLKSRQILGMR
Chain of Serine/threonine-protein kinase Sgk1 (Homo sapiens) (O00141 whole entry, the tested form may be a part): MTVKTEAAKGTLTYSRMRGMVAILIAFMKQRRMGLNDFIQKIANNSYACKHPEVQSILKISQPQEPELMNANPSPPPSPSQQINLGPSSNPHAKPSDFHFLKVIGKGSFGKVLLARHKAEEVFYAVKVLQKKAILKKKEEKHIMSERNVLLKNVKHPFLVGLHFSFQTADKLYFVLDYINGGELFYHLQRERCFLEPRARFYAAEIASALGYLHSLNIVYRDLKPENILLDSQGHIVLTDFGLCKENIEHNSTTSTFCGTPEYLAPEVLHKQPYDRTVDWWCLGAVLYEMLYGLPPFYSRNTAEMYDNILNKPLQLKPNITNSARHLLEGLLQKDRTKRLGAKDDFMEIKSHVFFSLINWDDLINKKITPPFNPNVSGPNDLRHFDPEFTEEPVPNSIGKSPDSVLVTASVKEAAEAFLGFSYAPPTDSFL
Chain of Serine/threonine-protein kinase ULK2 (Homo sapiens) (Q8IYT8 whole entry, the tested form may be a part): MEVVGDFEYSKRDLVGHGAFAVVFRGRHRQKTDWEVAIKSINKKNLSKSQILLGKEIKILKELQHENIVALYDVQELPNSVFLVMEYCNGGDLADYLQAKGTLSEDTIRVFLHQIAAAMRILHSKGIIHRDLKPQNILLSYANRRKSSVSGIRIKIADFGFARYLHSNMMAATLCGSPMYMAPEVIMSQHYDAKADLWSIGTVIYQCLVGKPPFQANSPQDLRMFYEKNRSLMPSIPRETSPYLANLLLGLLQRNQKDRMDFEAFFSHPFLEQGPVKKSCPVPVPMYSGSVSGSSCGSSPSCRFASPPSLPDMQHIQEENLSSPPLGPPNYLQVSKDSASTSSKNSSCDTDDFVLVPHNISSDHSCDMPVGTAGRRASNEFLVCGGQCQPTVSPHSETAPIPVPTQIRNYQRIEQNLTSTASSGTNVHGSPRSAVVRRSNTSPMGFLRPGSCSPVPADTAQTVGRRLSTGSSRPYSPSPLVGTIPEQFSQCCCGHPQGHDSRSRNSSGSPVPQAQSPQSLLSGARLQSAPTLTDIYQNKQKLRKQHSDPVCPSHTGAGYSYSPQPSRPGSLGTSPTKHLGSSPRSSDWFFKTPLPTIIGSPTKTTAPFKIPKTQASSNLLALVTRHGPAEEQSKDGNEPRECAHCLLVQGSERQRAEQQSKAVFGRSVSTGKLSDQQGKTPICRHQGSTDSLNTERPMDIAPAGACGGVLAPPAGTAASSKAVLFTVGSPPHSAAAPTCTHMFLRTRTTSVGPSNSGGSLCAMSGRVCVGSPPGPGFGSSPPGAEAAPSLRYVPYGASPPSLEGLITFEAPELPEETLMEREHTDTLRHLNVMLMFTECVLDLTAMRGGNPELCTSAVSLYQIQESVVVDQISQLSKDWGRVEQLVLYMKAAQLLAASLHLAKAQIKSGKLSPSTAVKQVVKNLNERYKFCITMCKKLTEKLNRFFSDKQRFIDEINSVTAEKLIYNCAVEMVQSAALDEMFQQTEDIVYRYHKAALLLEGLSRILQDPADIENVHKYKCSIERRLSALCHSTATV
Chain of Calcium/calmodulin-dependent protein kinase type 1D (Homo sapiens) (Q8IU85 whole entry, looked up, the tested form may be a part): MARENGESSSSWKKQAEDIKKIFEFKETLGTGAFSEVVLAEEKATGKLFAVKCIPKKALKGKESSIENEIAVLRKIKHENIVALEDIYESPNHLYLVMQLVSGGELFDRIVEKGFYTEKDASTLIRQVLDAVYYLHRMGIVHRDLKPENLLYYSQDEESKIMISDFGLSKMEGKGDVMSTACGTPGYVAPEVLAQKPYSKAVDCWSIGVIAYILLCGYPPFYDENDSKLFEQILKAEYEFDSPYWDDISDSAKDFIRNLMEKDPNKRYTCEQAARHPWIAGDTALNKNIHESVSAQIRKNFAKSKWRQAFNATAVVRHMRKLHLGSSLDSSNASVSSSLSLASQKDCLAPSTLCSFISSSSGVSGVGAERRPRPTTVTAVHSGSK

For the compound `O=C(Nc1cccc([C@H]2CCCN(c3ncnc4[nH]ccc34)C2)c1)Nc1ccccc1N1CCCC1`, the inhibition in [1] is 95%; in [2], 26%; in assay [3] it was 94%; in assay [4], 50%; in assay [5] it was 100%; in assay [6] it was 69%. Moreover, the inhibition is 0% in assay [7]; 1.6% in [8]; 54% in [9]; 88% in assay [10]; 85% in [11]; 0.35% in assay [12]. Moreover, the inhibition in assay [13] is 72%; in assay [14], 60%; in assay [15], 90%; in [16] it was 23%.
For the compound `O=C(Nc1cccc([C@@H]2CN(c3ncnc4[nH]ccc34)CCN2CCO)c1)Nc1c(F)cccc1N1CCCC1`, the inhibition amounted to 88% in assay [17]; 95% in assay [18]; 64% in assay [19]; 100% in assay [20]; 79% in assay [21]; 100% in assay [22]. Also, the inhibition in assay [23] was 73%; in assay [24] it was 86%; in assay [25] it was 100%; in [26], 84%; in assay [27], 60%.

The values above are taken from ChEMBL document CHEMBL4387741, “Optimization of novel reversible Bruton's tyrosine kinase inhibitors identified using Tethering-fragment-based screens” (Bioorg Med Chem, 2019).
